What was measured:
[1] = under the conditions investigated in WO 99/18097; cited from earlier work
[2] = Moisture sorption isotherm (SPS-11 moisture sorption analyzer); format: physicochemical
Description: The moisture sorption isotherm was recorded with a SPS-11 moisture sorption analyzer (MD Mess-technik, Ulm, D). The measurement cycle was started at 0% relative humidity (RH), increased in 10% steps up to 90% RH and in a 5% step up to 95% RH. The equilibrium condition for each step was set to a constant mass±0.003% over 49 min. The temperature was 25±0.1° C.
At ambient conditions form II-S contains approximately 1 mol water (monohydrate). […] The maximum water content peaks at 5.2% at 90% relative humidity, which corresponds to a water mol ratio of 2.0 (FIG. 4).

## CC[C@@H]([C@H](C)O)n1ncn(-c2ccc(N3CCN(c4ccc(OC[C@@H]5CO[C@@](Cn6cncn6)(c6ccc(F)cc6F)C5)cc4)CC3)cc2)c1=O [form II, posaconazole]
[1]
  stability of the crystalline form: unstable

## CC[C@@H]([C@H](C)O)n1ncn(-c2ccc(N3CCN(c4ccc(OC[C@@H]5CO[C@@](Cn6cncn6)(c6ccc(F)cc6F)C5)cc4)CC3)cc2)c1=O [form II-S, 2,5-anhydro-1,3,4-trideoxy-2-C-(2,4-difluorophenyl)-4-[[4-[4-[4-[1-[(1S,2S)-1-ethyl-2-hydroxypropyl]-1,5-dihydro-5-oxo-4H-1,2,4-triazol-4-yl]phenyl]-1-piperazinyl]phenoxy]methyl]-1-(1H-1,2,4-triazol-1-yl)-D-threo-pentitol]
[2]; ambient conditions, per mole posaconazole (monohydrate)
  water content at ambient conditions: approximately 1 mol water
[2]; at 90% relative humidity, 25 °C, corresponds to the 5.2% water content
  water mol ratio at maximum water content: 2.0
[2]; between 0 and 10% relative humidity
  step of water uptake/loss: over 0.5 mol water
[2]; moisture sorption isotherm, at 90% relative humidity, 25 °C
  maximum water content: 5.2%
